Results published in US20260327264A1, “PEPTIDE INHIBITORS OF INTERLEUKIN-23 RECEPTOR” (Zealand Pharma A/S, priority 2023, published 2026).
Entries after “also recorded” stand apart in the source; their conditions may differ. Like-named read-outs stand apart in the source and are kept apart here. *1 amine or outer side, *2 acyl side, *3 side chain or, on linkers, in order; H or OH if unused. Where a SMILES comes first, the peptide text is derived from it. Bridges are numbered along the chain shown (N, C = ends). [ ]: non-standard residue; d: D form. 2Nal = N[C@@H](Cc1ccc2ccccc2c1)C(=O)O; AEF = NCCOc1ccc(C[C@H](N)C(=O)O)cc1; X1 = O=C(Cc1ccc(CN[*:1])cc1)[*:2]; 3Pal = N[C@@H](Cc1cccnc1)C(=O)O; αMeL = CC(C)C[C@](C)(N)C(=O)O; Dab = NCC[C@H](N)C(=O)O

Key:
[1] = Peptide stability in simulated intestinal fluid (SIF); type: in vitro ADME; conditions: for remaining at 1 h, 10 µM / remaining at 4 h, 10 µM: pig
Method: (§1) SGF and SIF were prepared based on the United States Pharmacopeia specifications (Test Solutions, United States Pharmacopeia 35, NF 30, 2012). SGF was prepared by dissolving sodium chloride (0.2 g) in 50 mL of water. A volume of 0.7 mL of 10 M HCl was added to adjust the pH of the solution to 1.2 and the volume made up to 100 mL with water. 64 mg porcine pepsin (P7125, Sigma Aldrich) was gently dissolved into 20 mL preheated (37° C.) solution (3.2 g/L) immediately prior to the incubation. SIF was prepared by dissolving monobasic potassium phosphate (0.68 g) in 50 mL of water and adjusting the pH to 6.8 with 1 M NaOH. The volume was subsequently made up to 100 mL with water. 200 mg porcine pancreatin (P1625, Sigma Aldrich) was gently dissolved into 20 mL preheated (37° C.) solution (10 g/L) immediately prior to the incubation.
(§2) To initiate the incubations, 20 μL of peptide stock solution in 50% v/v isopropanol was deposited at the bottom of a well plate and 580 μL matrix solution was added to give a final substrate concentration of 10 μM. The incubation was performed at 37° C. with gentle shaking. 70 μL aliquots were removed at 0, 1 and 4 hours and quenched into 210 μL ice-cold precipitant solution (95% v/v acetonitrile with 0.1% v/v formic acid). After the last timepoint, the sampling plate was mixed for 10 min on a shaking table and centrifuged 10 min at 2200 g. 70 μL resulting supernatant was diluted with 150 μL water, mixed and centrifugated before analysis by liquid chromatography high resolution mass spectrometry. The zero sample was reinjected after the 4-hour sample to confirm that no drift in instrument sensitivity had occurred during the run. Percent remaining at each timepoint was calculated relative to timepoint zero based on absolute peak areas.
(§3) Compounds with a SIF stability (after 4 h) above 70% are considered highly SIF stable. Compounds with a SIF stability (after 4 h) between 30-70% (including 30% and 70%) are considered moderately SIF stable. Compounds with a SIF stability (after 4 h) below 30% are considered SIF unstable. SIF stability values above 100% are due to assay uncertainty and indicate the compound has not degraded.

[2] = Peptide stability in simulated gastric fluid (SGF); type: in vitro ADME; conditions: pig, pH 1.2, pepsin, 37° C.
Method: as §1, §2
as §3, with “SGF” for “SIF”

[3] = system: IL-23 mediated STAT3 signalling (DB cells); experiment: Functional inhibition of IL-23 mediated STAT3 signalling (phospho-STAT3 Tyr705) in DB cells; type: cell-based, human; conditions: for hIL-23 (pSTAT3) antagonist % inhibition: Table 3-2, maximal inhibitory response, EC80 of hIL-23
Procedure, shortened: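 DB cells preincubated 15 min with inhibitor at 37° C, 5% CO2, then stimulated 90 min with hIL-23 at EC80. Lysate phospho-STAT3 measured by MSD electrochemiluminescence. Signal normalized to IL-23-alone and buffer wells; IC50 and maximal inhibition from concentration–response curves.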

human IL-23R = molecular target: T1, human IL-23R (Homo sapiens, UniProt Q5VWK5); experiment: Binding assay: displacement of fluorophore (TAMRA)-labelled reference compound from human IL-23R (BRET, Nluc-IL23R fusion protein membranes); conditions: for potency of the compound (in words): potency against IL-23R; for Emax: read-out: % displacement (hIL-23R binding)
T1 construct: Nanoluc luciferase (Nluc); secretion signal encoded by the plasmid (not specified); expressed in transfected cells; crude membranes used in the assay
T1 sequence (Q5VWK5 22-629): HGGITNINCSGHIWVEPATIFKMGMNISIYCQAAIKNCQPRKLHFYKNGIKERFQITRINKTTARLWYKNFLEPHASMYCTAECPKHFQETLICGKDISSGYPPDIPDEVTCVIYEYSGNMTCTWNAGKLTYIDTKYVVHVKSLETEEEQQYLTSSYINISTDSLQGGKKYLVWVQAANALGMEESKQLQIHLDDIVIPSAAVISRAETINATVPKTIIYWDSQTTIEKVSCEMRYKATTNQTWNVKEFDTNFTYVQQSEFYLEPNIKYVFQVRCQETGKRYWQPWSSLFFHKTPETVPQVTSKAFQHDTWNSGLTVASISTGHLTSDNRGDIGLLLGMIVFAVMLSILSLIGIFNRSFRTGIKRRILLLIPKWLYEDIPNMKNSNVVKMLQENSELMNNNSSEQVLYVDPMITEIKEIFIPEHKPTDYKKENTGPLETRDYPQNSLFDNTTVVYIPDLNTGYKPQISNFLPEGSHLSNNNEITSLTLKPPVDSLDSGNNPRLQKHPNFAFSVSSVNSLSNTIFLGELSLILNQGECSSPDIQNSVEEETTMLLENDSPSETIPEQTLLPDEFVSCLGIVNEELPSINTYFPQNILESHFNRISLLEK
Source text: The assay principle relies on Bioluminescence Resonance Energy Transfer (BRET) between a fluorophore-labelled reference compound binding to the IL-23R part of a fusion protein consisting of the IL-23R fused to a Nanoluc luciferase enzyme (Nanoluc). The Nanoluc is placed in the N-terminus in close proximity to the binding domain of the ligand. Upon close proximity between the fluorophore of the fluorophore-labelled compound and the Nanoluc of the fusion protein, bioluminescence energy generated from conversion of a Nanoluc substrate, is transferred to the fluorophore resulting in an increase in BRET. In presence of an unlabelled compound, the unlabelled compound displaces the fluorophore-labelled peptide from its binding site resulting in a decrease in BRET. The concentration for which half of the fluorophore-labelled peptide is displaced by the unlabelled compound depends on the affinity of the compound for the IL-23R, and is termed the IC50 concentration.
The plasmid also contained a gene to confer resistance for the antibiotic hygromycin. A cell line stably expressing the Nluc-IL23R fusion protein was generated by transfection of HEK293 cells with the expression plasmid and selected with hygromycin for 3 weeks in Growth medium consisting of DMEM w/Glutamax-I containing, 10% V/V FBS, 1% V/V P/S, 1 mM Sodium Pyruvate, and 1× NEAA, and 0.3 mg/mL hygromycin. The remaining cells were propagated and considered a stable expressing Nluc-IL23R fusion protein pool clone.
Cells expressing the Nluc-IL23R fusion protein were expanded in Growth medium and membranes prepared by homogenization of a cell pellet from 18 T175 flasks (4° C. in subsequent steps). The cell pellet was lysed Tris 10 mM, 7.5, 1 mM EDTA and protease inhibitors (Complete, Roche) and homogenized using a 15 mL glass-dounce by 50 strokes. The homogenate was spun at spin @1500 rpm for 10 min, the supernatant transferred to SV-34 tubes and spun at 40000 g for 20 min at 4° C. to pellet the crude membranes. The supernatant was then removed, the pellet resuspended in 5 mL buffer containing 50 mM HEPES pH 7.4, 5 mM EGTA, and 5 mM MgCl2, and homogenized. Aliquots of the resuspended and homogenized membranes containing the Nluc-IL23R fusion protein were stored at −80° C. until use.
The plate was sealed with light impermeable plate seals, and incubated on an orbital shaker 400 rpm for 2 hours at room temperature. To determine the BRET ratio, the plate seal was removed and 25 μL of the Nanoluc substrate (Promega N1572) diluted 1:500 was added to each well and incubated for 1-2 minutes on an orbital shaker at 400 rpm. […] The BRET ratio was calculated as the fluorescence from the TAMRA/nanoluc bioluminescence.
Compound potency (IC50) and maximal displacement (% displacement) were estimated by computer-aided curve fitting using a 4-parameter logistic (4PL) non-linear model. The IC50 and maximal for each compound was determined by computer-aided curve fitting using a 4-parameter logistic (4PL) non-linear model.

[4] = simulated intestinal fluid, SIF, pH 6.8, pancreatin, 37° C.
[5] = simulated intestinal fluid, SIF, pH 6.8, pancreatin, 37° C., read-out: SIF (% remaining 4 h)
[6] = EC80 of hIL-23, read-out: IC50 (pSTAT3)
[7] = Table 3-2, EC80 of hIL-23, read-out: hIL-23 (pSTAT3) antagonist IC50

| remaining at 1 h, 10 µM [1, 4] [%] | remaining at 4 h, 10 µM [1, 5] [%] | remaining at 1 h, 10 µM [2] [%] | remaining at 4 h, 10 µM [2] [%] | IC50 [3, 6] [nM] | IC50 [3, 7] [nM] | remaining at 4 h, 10 µM ([1]; 37 °C, simulated intestinal fluid pH 6.8 with porcine pancreatin, read-out: SIF (% after 4 h), intact peptide remaining) [%] | SIF stability (in words) ([1]; simulated intestinal fluid) | IC50 (human IL-23R) [nM] | Emax (human IL-23R) [%] | SMILES | hIL-23 (pSTAT3) antagonist % inhibition [3] [%] | potency of the compound (in words) (human IL-23R) | major metabolite formed after incubation in the SIF assay ([1]; simulated intestinal fluid) |
| --- | --- | --- | --- | --- | --- | --- | --- | --- | --- | --- | --- | --- | --- |
| 0 | 0 | 5 | 0 |  |  |  |  |  |  | CC(C)C[C@@H]1NC(=O)[C@H](Cc2c[nH]c3ccccc23)NC(=O)[C@H](Cc2c[nH]c3ccccc23)NC(=O)[C@@H]2CSCC(=O)CSC[C@H](NC(=O)[C@H](CO)NC(=O)[C@@H](NC(=O)[C@@H](N)CC(=O)O)CSCC(=O)CSC[C@@H](C(=O)N[C@@H](CCCNC(=N)N)C(N)=O)NC1=O)C(=O)N[C@@H](Cc1c[nH]c3ccccc13)C(=O)N[C@@H](CCC(N)=O)C(=O)N2 (single isomer, unassigned) [I3 (isomer 3), H-DC(1a)SC(2a)WQC(2a)WWLC(1a)R-[NH2], reference compound] |  |  |  |
| 91 |  |  | 105 | 2.1 | 2.1 |  |  |  |  | CC(C)C[C@]1(C)NC(=O)[C@H](Cc2ccc3ccccc3c2)NC(=O)[C@H](Cc2ccc(OCCN)cc2)NC(=O)[C@@H]2CCNC(=O)CC[C@H](NC(=O)[C@H](CO)NC(=O)Cc3ccc(cc3)CNC(=O)CC[C@@H](C(=O)N[C@@H](CCN)C(=O)N[C@H](Cc3cccnc3)C(N)=O)NC1=O)C(=O)N[C@@H](Cc1c[nH]c3ccccc13)C(=O)N[C@@H](CCC(N)=O)C(=O)N2 [Compound 5, [4-Aminomethyl-phenylacetyl](1c)*SE(2c)WQ[Dab](2c)[Y(2-aminoethoxy)][2-Nal][2-Me-Leu]E(1c)[Dab][{d}3-(3-Pyridyl)-Ala]-[NH2]] | 95 |  |  |
| 103 |  |  |  | 0.13 | 0.13 | 130 | SIF stable |  |  | CC(C)C[C@]1(C)NC(=O)[C@H](Cc2ccc3ccccc3c2)NC(=O)[C@H](Cc2ccc(OCCN)cc2)NC(=O)[C@@H]2CCNC(=O)CC[C@H](NC(=O)[C@H](CO)NC(=O)Cc3ccc(cc3)CNC(=O)CC[C@@H](C(=O)N[C@@H](CCN)C(=O)NCCc3cccnc3)NC1=O)C(=O)N[C@@H](Cc1c[nH]c3ccccc13)C(=O)N[C@@H](CCC(N)=O)C(=O)N2 [Compound 7, [4-Aminomethyl-phenylacetyl](1c)*SE(2c)WQ[Dab](2c)[Y(2-aminoethoxy)][2-Nal][2-Me-Leu]E(1c)[Dab]-[NH-(2-(pyridin-3-yl)ethyl)]] | 98 | more potent than Compound 6; also recorded: particularly potent |  |
|  | 57 | 101 | 101 |  | 0.063 |  |  |  |  | CNC(=O)[C@H](Cc1cccnc1)NC(=O)[C@H](CCN)NC(=O)[C@@H]1CCC(=O)NCc2ccc(cc2)CC(=O)N[C@@H](Cc2ccccc2)C(=O)N[C@H]2CCC(=O)NCC[C@H](NC(=O)[C@H](CCC(N)=O)NC(=O)[C@H](Cc3c[nH]c4ccccc34)NC2=O)C(=O)N[C@@H](Cc2ccc(OCCN)cc2)C(=O)N[C@@H](Cc2ccc3ccccc3c2)C(=O)N[C@@](C)(CC(C)C)C(=O)N1 [Compound 21, [4-Aminomethyl-phenylacetyl](1c)*FE(2c)WQ[Dab](2c)[Y(2-aminoethoxy)][2-Nal][2-Me-Leu]E(1c)[Dab][3-(3-Pyridyl)-Ala]-[NHMe]] ([X1]FEWQ[Dab][AEF][2Nal][αMeL]E[Dab][3Pal]-NHMe; lactam 3-6, N-10) | 102 |  |  |
| 92 |  | 98 |  |  |  |  |  |  |  | CNC(=O)[C@H](Cc1cccnc1)NC(=O)[C@H](CCC(N)=O)NC(=O)[C@@H]1CCC(=O)NCc2ccc(cc2)CC(=O)N[C@@H](CO)C(=O)N[C@H]2CCC(=O)NCC[C@H](NC(=O)[C@H](CCC(N)=O)NC(=O)[C@H](Cc3c[nH]c4ccccc34)NC2=O)C(=O)N[C@@H](Cc2ccc(OCCN)cc2)C(=O)N[C@@H](Cc2ccc3ccccc3c2)C(=O)N[C@@](C)(CC(C)C)C(=O)N1 [Compound 33, [4-Aminomethyl-phenylacetyl](1c)*SE(2c)WQ[Dab](2c)[Y(2-aminoethoxy)][2-Nal][2-Me-Leu]E(1c)Q[3-(3-Pyridyl)-Ala]-[NHMe]] ([X1]SEWQ[Dab][AEF][2Nal][αMeL]EQ[3Pal]-NHMe; lactam 3-6, N-10) |  |  |  |
| 93 | 89 |  |  |  | 0.093 |  |  | 0.023 | 89 | CNC(=O)[C@H](Cc1cccnc1)NC(=O)[C@H](CCN)NC(=O)[C@@H]1CCC(=O)NCc2ccc(cc2)CC(=O)N[C@@H](C)C(=O)N[C@H]2CCC(=O)NCC[C@H](NC(=O)[C@H](CCC(N)=O)NC(=O)[C@H](Cc3c[nH]c4ccccc34)NC2=O)C(=O)N[C@@H](Cc2ccc(OCCN)cc2)C(=O)N[C@@H](Cc2cnc3ccccc3c2)C(=O)NC(C)(C)C(=O)N1 [Compound 49, 4-aminomethyl-phenylacetyl](1c)*AE(2c)WQ[Dab](2c)[Y(2-aminoethoxy)][3-quinolinylalanine][Aib]E(1c)[Dab][3-(3-Pyridyl)-alanyl]-[NHMe]] | 100 |  |  |
| 92 | 95 |  |  |  | 0.6 |  |  | 0.081 | 102 | CNC(=O)[C@H](Cc1cccnc1)NC(=O)[C@H](CCN)NC(=O)[C@@H]1CCC(=O)NCc2ccc(cc2)CC(=O)N[C@@H](C)C(=O)N[C@H]2CCC(=O)NCC[C@H](NC(=O)[C@H](CCC(N)=O)NC(=O)[C@H](Cc3c[nH]c4ccccc34)NC2=O)C(=O)N[C@@H](Cc2cnc3ccccc3c2)C(=O)N[C@@H](Cc2ccc3ccccc3c2)C(=O)NC(C)(C)C(=O)N1 [Compound 52, [4-aminomethyl-phenylacetyl](1c)*AE(2c)WQ[Dab](2c)[3-quinolinylalanine][2Nal][Aib]E(1c)[Dab][3-(3-Pyridyl)-alanyl]-[NHMe]] | 99 |  |  |
|  |  |  |  |  |  |  | not stable |  | 97 | CC(C)C[C@]1(C)NC(=O)[C@H](Cc2ccc3ccccc3c2)NC(=O)[C@H](Cc2ccc(OCCN)cc2)NC(=O)[C@@H]2CCNC(=O)CC[C@H](NC(=O)[C@H](CO)NC(=O)Cc3ccc(cc3)CNC(=O)CC[C@@H](C(=O)N[C@@H](CCN)C(=O)N[C@@H](Cc3cccnc3)C(N)=O)NC1=O)C(=O)N[C@@H](Cc1c[nH]c3ccccc13)C(=O)N[C@@H](CCC(N)=O)C(=O)N2 [Ref 122, [4-Aminomethyl-phenylacetyl](1c)*SE(2c)WQ[Dab](2c)[Y(2-aminoethoxy)][2-Nal][2-Me-Leu]E(1c)[Dab][3-(3-Pyridyl)-Ala]-[NH2], reference compound] | 99 | potent | the peptide without the C-terminal 3Pal (3-(3-Pyridyl)-Ala) amino acid |
